According to patent US20070275936A1, “Formulations and Treatment Methods” (priority 1998, published 2007):

Target: chloroquine resistant KI P. falciparum
Type: cell-based
Method: Triplicate readings were made for each concentration.
The testing was carried out according to the procedure of Desjardins et al. 1979. After 30 hr culture at 37 degrees C., the same microtiter plates from schizont inhibition assays with another triplicate wells were pulsed with ^3H-hypoxanthine for overnight. The cell suspensions were washed twice on millipore glass fiber filter with Millipore filter apparatus. […] The activity of the drug was measured by plotting DPM against concentration of drug.

| Compound | IC50 |
| --- | --- |
| C[C@]12CC[C@H](O)CC1=CC[C@@H]1[C@@H]2CC[C@]2(C)C(=O)[C@H](Br)C[C@@H]12 [DHEA-Br, 16α-bromodehydro-epiandrosterone] | ˜25.0 μg/mL |
| C[C@]12CC[C@H](O)C[C@@H]1CC[C@@H]1[C@@H]2CC[C@]2(C)C(=O)[C@H](Cl)C[C@@H]12 [16-chloroepiandrosterone, 16α-chloroepiandrosterone] | ˜9.25 μg/mL |
